Assay results from ChEMBL document CHEMBL1201862, “PubChem BioAssay data set” (2004).
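Compound exposure: 48 hours, 5 concentrations, 96-well plates. GI50 = concentration required for 50% inhibition of growth.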 Activity calls are given as the source filed them. Rule as the data show it: active = GI50 up to about 1.1 µM and inactive = higher.

What was measured:
Test in all cases: inhibition of tumour cell growth, NCI panel, 48 h
M14 = test system: M14
MDA-N = test system: MDA-N
KM12 = test system: KM12
BT-549 = test system: BT-549
HOP-62 = test system: HOP-62
SN12C = test system: SN12C
HCT-15 = test system: HCT-15
OVCAR-3 = test system: OVCAR-3
MDA-MB-231 = test system: MDA-MB-231
NCI-H23 = test system: NCI-H23
SF-539 = test system: SF-539
UACC-257 = test system: UACC-257
MOLT-4 = test system: MOLT-4
NCI-H460 = test system: NCI-H460
HT-29 = test system: HT-29
SK-MEL-28 = test system: SK-MEL-28
SK-OV-3 = test system: SK-OV-3
OVCAR-4 = test system: OVCAR-4
UO-31 = test system: UO-31
RXF 393 = test system: RXF 393

Row | SMILES | GI50 (M14) | GI50 (MDA-N) | GI50 (KM12) | GI50 (BT-549) | GI50 (HOP-62) | GI50 (SN12C) | GI50 (HCT-15) [µM] | GI50 (OVCAR-3) | GI50 (MDA-MB-231) | GI50 (NCI-H23) | GI50 (SF-539) | GI50 (UACC-257) | GI50 (MOLT-4) | GI50 (NCI-H460) | GI50 (HT-29) | GI50 (SK-MEL-28) | GI50 (SK-OV-3) | GI50 (OVCAR-4) | GI50 (UO-31) | GI50 (RXF 393)
1 | O=C1CNc2cc(N3CCN(c4cccc(C(F)(F)F)c4)CC3)ccc2N1 | 18 µM (inactive) | 84.5 µM (inactive) | 32.9 µM (inactive) | 42.8 µM (inactive) | > 100 µM (inactive) | > 100 µM (inactive) | 38.9 | 27.5 µM (inactive) | > 100 µM (inactive) | 39.9 µM (inactive) | 57.3 µM (inactive) | 37 µM (inactive) | 28.7 µM (inactive) | 53 µM (inactive) | 70.6 µM (inactive) | 68.5 µM (inactive) | > 100 µM (inactive) | 21.4 µM (inactive) | 24.7 µM (inactive) | 
2 | CC(C)=NNc1cnnc2ccc([N+](=O)[O-])cc12 | 78 µM (inactive) | 47.2 µM (inactive) | > 100 µM (inactive) | > 100 µM (inactive) |  | 36.1 µM (inactive) | 57.5 |  | 59.7 µM (inactive) | > 100 µM (inactive) | > 100 µM (inactive) | > 100 µM (inactive) | 37.2 µM (inactive) | 33.3 µM (inactive) | > 100 µM (inactive) |  | > 100 µM (inactive) |  | 35.2 µM (inactive) | > 100 µM (inactive)
3 | CC/C=C\C/C=C\C/C=C\CCCCCCCC(=O)OC(COC(=O)CCCCCCCCCCCCCCCCC)COC1OC(CO)C(O)C(O)C1O (stereo not given) | > 25 µM (inactive) | > 25 µM (inactive) | > 25 µM (inactive) | > 25 µM (inactive) | > 25 µM (inactive) | > 25 µM (inactive) | > 25 | 7.74 µM (inactive) | > 25 µM (inactive) | > 25 µM (inactive) |  | > 25 µM (inactive) | > 25 µM (inactive) | > 25 µM (inactive) | 22.8 µM (inactive) | > 25 µM (inactive) | > 25 µM (inactive) | > 25 µM (inactive) | > 25 µM (inactive) | > 25 µM (inactive)
4 | CCn1c2ccccc2n2c(=O)c3c(c(C#N)c12)CCCC3 | > 100 µM (inactive) | > 100 µM (inactive) | > 100 µM (inactive) | > 100 µM (inactive) |  | > 100 µM (inactive) | > 100 | > 100 µM (inactive) | > 100 µM (inactive) | > 100 µM (inactive) | > 100 µM (inactive) | > 100 µM (inactive) | > 100 µM (inactive) | > 100 µM (inactive) | > 100 µM (inactive) | > 100 µM (inactive) | > 100 µM (inactive) | > 100 µM (inactive) | 93.5 µM (inactive) | 
5 | COc1cccc(C2CC(C)(O)Oc3cc4c(cc32)OCO4)c1 (stereo not given) | 12.5 µM (inactive) | 2.82 µM (inactive) | 11.2 µM (inactive) | 16.1 µM (inactive) | 21.1 µM (inactive) | 27.3 µM (inactive) | 7.01 | 19.4 µM (inactive) | 24.1 µM (inactive) | 28.1 µM (inactive) |  | 37.6 µM (inactive) | 8.97 µM (inactive) | 16.1 µM (inactive) | 7.26 µM (inactive) | 52.6 µM (inactive) | 16.9 µM (inactive) | 24.2 µM (inactive) | 23.3 µM (inactive) | 28 µM (inactive)
6 | N#Cc1nc2ccccc2nc1N1CCN(c2ccc([N+](=O)[O-])cc2)CC1 | > 100 µM (inactive) | > 100 µM (inactive) | > 100 µM (inactive) | > 100 µM (inactive) | > 100 µM (inactive) | > 100 µM (inactive) | > 100 |  | > 100 µM (inactive) | > 100 µM (inactive) |  | > 100 µM (inactive) | 0.106 µM (active) | > 100 µM (inactive) | > 100 µM (inactive) | > 100 µM (inactive) | > 100 µM (inactive) | > 100 µM (inactive) | > 100 µM (inactive) | > 100 µM (inactive)
7 | CNC1C(O)C(OC2C(N)CC(N)C(OC3OC(C(C)O)C(O)C(O)C3N)C2O)OCC1(C)O (stereo not given) | > 100 µM (inactive) | > 100 µM (inactive) | > 100 µM (inactive) | > 100 µM (inactive) | > 100 µM (inactive) | > 100 µM (inactive) | > 100 | > 100 µM (inactive) | > 100 µM (inactive) | > 100 µM (inactive) | > 100 µM (inactive) |  | > 100 µM (inactive) | > 100 µM (inactive) | > 100 µM (inactive) | > 100 µM (inactive) | > 100 µM (inactive) | > 100 µM (inactive) | > 100 µM (inactive) | 
8 | O=C1O[C@H]2[C@@H]3OC(=O)c4cc(O)c(O)c(O)c4-c4c(cc(O)c(O)c4O)C(=O)OC[C@H]2O[C@@H](OC(=O)c2cc(O)c(O)c(O)c2)[C@@H]3OC(=O)c2cc(O)c(O)c3c2[C@@H]2C1=CC(=O)C(O)(O)C2(O)O3 (stereo not given in full) | 19.7 µM (inactive) | 16 µM (inactive) | 22.1 µM (inactive) | 72.8 µM (inactive) | 38.8 µM (inactive) | 16.9 µM (inactive) | 21.9 | 35.6 µM (inactive) | 19.8 µM (inactive) | 33.1 µM (inactive) |  | 51.6 µM (inactive) | 25.9 µM (inactive) | 33 µM (inactive) | 16.5 µM (inactive) | > 100 µM (inactive) | 11 µM (inactive) | 15.2 µM (inactive) | 21.7 µM (inactive) | 36.5 µM (inactive)
9 | Cc1nc(N)c(N2CCN(S(=O)(=O)N(Cc3ccccc3)Cc3ccccc3)CC2)c(O)n1 | 28.5 µM (inactive) | 85.1 µM (inactive) | 56.9 µM (inactive) | 48.9 µM (inactive) | 31.6 µM (inactive) | 32.7 µM (inactive) | > 100 | 20.6 µM (inactive) | 62.4 µM (inactive) | 21.9 µM (inactive) | 23.2 µM (inactive) | 25.4 µM (inactive) | > 100 µM (inactive) | 40.6 µM (inactive) | 26.8 µM (inactive) | 17.6 µM (inactive) |  | 22.2 µM (inactive) | > 100 µM (inactive) | 
10 | CC1(C)CC[C@]2(C(=O)O)CC[C@]3(C)C(=CC[C@@H]4[C@@]5(C)CC[C@H](OC6OC(CO)C(O)C(O)C6OC6OC(CO)C(O)C(O)C6O)C(C)(C)[C@@H]5CC[C@]43C)[C@@H]2C1 (stereo not given in full) | 16.2 µM (inactive) | 19.6 µM (inactive) | 15.5 µM (inactive) | 19.5 µM (inactive) | 17.8 µM (inactive) | 18.2 µM (inactive) | 18 | 15.7 µM (inactive) | 26.4 µM (inactive) | 24.9 µM (inactive) |  | 20.1 µM (inactive) | 22.5 µM (inactive) | 21 µM (inactive) | 15.8 µM (inactive) | 14.6 µM (inactive) | 17.8 µM (inactive) | 16.8 µM (inactive) | 20.6 µM (inactive) | 19.1 µM (inactive)
11 | Sc1nnc(Cc2ccc(Cl)cc2)[nH]1 | > 100 µM (inactive) | > 100 µM (inactive) | 43.2 µM (inactive) | > 100 µM (inactive) | 93.1 µM (inactive) | 78.2 µM (inactive) | 59.6 | > 100 µM (inactive) | 42.3 µM (inactive) | 26.6 µM (inactive) | 66.4 µM (inactive) | 60.5 µM (inactive) | 50.2 µM (inactive) | 50.8 µM (inactive) | > 100 µM (inactive) | > 100 µM (inactive) | 68.5 µM (inactive) | 71.9 µM (inactive) | 32.4 µM (inactive) | 
12 | COc1ccc(C2NC3=C(CCCC3)C3(C#N)C(=O)N=C(N)C23C#N)cc1 (stereo not given) | > 100 µM (inactive) | > 100 µM (inactive) | > 100 µM (inactive) | > 100 µM (inactive) | > 100 µM (inactive) | > 100 µM (inactive) | > 100 |  | > 100 µM (inactive) | > 100 µM (inactive) |  | > 100 µM (inactive) | > 100 µM (inactive) | > 100 µM (inactive) | > 100 µM (inactive) | > 100 µM (inactive) | > 100 µM (inactive) | > 100 µM (inactive) | > 100 µM (inactive) | > 100 µM (inactive)
13 | CC(C)(C)c1cc(C(=O)/C=C/c2cc[nH]n2)cc(C(C)(C)C)c1O | 1.82 µM (inactive) |  | 2.29 µM (inactive) | 4.83 µM (inactive) | 2.86 µM (inactive) | 1.85 µM (inactive) | 2.11 | 2.75 µM (inactive) | 1.91 µM (inactive) | 2.78 µM (inactive) | 3.85 µM (inactive) | 3.24 µM (inactive) | 2.61 µM (inactive) | 3.72 µM (inactive) | 2.61 µM (inactive) | 6.11 µM (inactive) | 15.7 µM (inactive) | 6.4 µM (inactive) | 1.76 µM (inactive) | 1.69 µM (inactive)
14 | O=C(NC(Cc1ccccc1)P(=O)(O)c1ccccc1)OCc1ccccc1 (stereo not given) | > 100 µM (inactive) | > 100 µM (inactive) | > 100 µM (inactive) | > 100 µM (inactive) | > 100 µM (inactive) | > 100 µM (inactive) | > 100 | > 100 µM (inactive) |  | > 100 µM (inactive) |  | > 100 µM (inactive) | > 100 µM (inactive) | > 100 µM (inactive) | > 100 µM (inactive) | > 100 µM (inactive) | > 100 µM (inactive) | > 100 µM (inactive) | > 100 µM (inactive) | 
15 | CCOC(=O)N1c2c(c3ccccc3n2C(=O)OCC)C(=O)C(OC)N1C(=O)OCC (stereo not given) | 38.4 µM (inactive) | 33.2 µM (inactive) | 17.9 µM (inactive) | 60.7 µM (inactive) | 22 µM (inactive) | 28.8 µM (inactive) | 27.7 | 30.2 µM (inactive) | 22.9 µM (inactive) | 44.3 µM (inactive) | 24.6 µM (inactive) | 29.4 µM (inactive) | 21.6 µM (inactive) | 36.1 µM (inactive) | 30.5 µM (inactive) | 24.2 µM (inactive) | 28.4 µM (inactive) | 41.9 µM (inactive) | 33.7 µM (inactive) | 
